Assay [1] concerns the target CDK8/Cyclin C (Homo sapiens (Human), UniProt P49336). The assay is described as follows: CDK8/Cyclin C binding assay (LanthaScreen Eu-Kinase Binding Assay). As to conditions: binding assay. As for the experimental part: The enzyme has been purchase from Invitrogen (PV4402) as a dimer of full-length His-tagged recombinant human proteins.
(§1) Assays were performed in 384-well plates. The final read out was generated using an EnVision plate reader (Perkin-Elmer).
A general note: TR-FRET usually uses a lanthanide donor and a delayed reading to cut background.

Assay [2] addresses CDK19/Cyclin C (Homo sapiens (Human), UniProt Q9BWU1). The assay is described as follows: CDK19/Cyclin C binding assay (LanthaScreen Eu-Kinase Binding Assay). To be noted: read-out: CDK19-CYCC IC50. As for the experimental part:
The binding assay relies on the LanthaScreen™ Eu-Kinase Binding Assay (Invitrogen).
Assay conditions were as indicated by the kit manufacturers with the following adaptations: • Assay buffer: 50 mM HEPES, pH 7.5, 1 mM EGTA, 0.01% Brij-35, 10 mM MgCl2 • Assay volume: 20 μl • Incubation time and temperature: 60 min at 25° C. • Cdk19-Cyclin C concentration: 2 nM • Tracer concentration: 20 nM • (Eu)-labelled anti-GST antibody concentration: 2 nM • Tested compound: Serial 1:3 dilutions • Final DMSO concentration in the assay: 1%
as §1

The target of assay [3] is intracellular CDK8 (Homo sapiens (Human), UniProt P49336). Put plainly: Cellular CDK8 inhibition assay, western blot P-STAT1 (S727) in IFN-γ treated SW620 cells. The format is cell-based. To be noted: SW620, IFNγ treated, semiquantitative; read-out: SW620 P-STAT1(S727) w IFNγ. As for the experimental part:
Compounds can be screened for their ability to inhibit intracellular CDK8 using a western blot assay to detect phosphorylation of the CDK8 substrate STAT1 (S727) in IFN-γ treated cells. SW620 cells are plated at 1*10^6 cells per well in 6-well plates (Solmeglas 13118) in RPMI media (Sigma-Aldrich R6504) supplemented with 10% foetal bovine serum (Sigma-Aldrich F7524), Penicillin/Streptomycin solution diluted 1:100 (Gibco 15070-063), and fungizone (Gibco, 15290-018), and allowed to adhere overnight at 37° C. in 5% CO2. Compounds are then added to the cell media from a final concentration of 10 μM in 10-fold serial dilutions and the cells are incubated at 37° C. in 5% CO2. After 1 hour, IFNγ (R&D systems Ref. RYD-285-IF-100) is added to a final concentration of […]. After 3 hours of treatment with IFNγ, the cells are washed in PBS, lysed adding 100 μl of protein lysis buffer (62.5 mM Tris pH 6.8 al 6.25%, 2% SDS y 10% glycerol) incubation 10 minutes at room temperature and heating at 95° C. 10 min. The protein content of the lysates is determined by DC protein assay (Biorad, Ref. 5000116). The proteins are resolved by SDS-PAGE and transferred to nitrocellulose membrane (VWR International eurolab, Ref. 732-4007). The membranes are incubated overnight at 4° C. with antibodies specific for total STAT1 (BD Transduction laboratory #610115), phosphoserine-727 STAT1 (Cell Signaling Ref. 9177) they are washed and then incubated with IRDye800 conjugated anti-mouse (Pierce/Cultek, 35521) and Alexa Fluor 680 goat anti-rabbit IgG secondary antibodies (Invitrogen, A21076). The bands are visualized and quantified using an Odyssey infrared imaging system (Li-Cor Biosciences). The percentage of phosphorylated STAT1 vs total STAT1 in cells treated with IFNγ is taken as hundred percent of phosphorylation. The percentage of STAT1 phosphorylation is finally plotted against concentration for each compound and EC50s for intracellular CDK8 inhibition are calculated using ActivityBase from IDBS.
(Immunoblotting shows a protein as a band on a membrane.)

Assay [4] deals with MV4:11. Put plainly: In vitro cell proliferation assay (CellTiter-Glo), MV4:11. Type of assay: cell-based. As to conditions: Homo sapiens, MV4-11; growth inhibition, semiquantitative; read-out: GI50 MV4:11. As for the experimental part: (§2) The in vitro potency of the compounds was measured by the cell proliferation assay CellTiter-Glo® Luminescent Cell Viability Assay, commercially available from Promega Corp., Madison, Wis. This homogeneous assay method is based on the recombinant expression of Coleoptera luciferase (U.S. Pat. No. 5,583,024; U.S. Pat. No. 5,674,713; U.S. Pat. No. 5,700,670) and determines the number of viable cells in culture based on quantitation of the ATP present, an indicator of metabolically active cells (Crouch et al (1993) J. Immunol. Meth. 160:81-88; U.S. Pat. No. 6,602,677). The CellTiterGlo® Assay was conducted […] it amenable to automated high throughput screening (HTS) (Cree et al (1995) AntiCancer Drugs 6:398-404).
(§3) The homogeneous assay procedure involves adding the single reagent (CellTiter-Glo® Reagent) directly to cells cultured in serum-supplemented medium. Cell washing, removal of medium and multiple pipetting steps are not required. The system detects as few as 15 cells/well in a 96-well format in 10 minutes after adding reagent and mixing.
(§4) The homogeneous “add-mix-measure” format results in cell lysis and generation of a luminescent signal proportional to the amount of ATP present. The amount of ATP is directly proportional to the number of cells present in culture. The CellTiter-Glo® Assay generates a “glow-type” luminescent signal, produced by the luciferase reaction, which has a half-life generally greater than five hours, depending on cell type and medium used. Viable cells are reflected in relative luminescence units (RLU). The substrate, Beetle Luciferin, is oxidatively decarboxylated by recombinant firefly luciferase with concomitant conversion of ATP to AMP and generation of photons. The extended half-life eliminates the need to use reagent injectors and provides flexibility for continuous or batch mode processing of multiple plates. This cell proliferation assay can be used with various multiwell formats, e.g. 96 or 384 well format. Data can be recorded by luminometer or CCD camera imaging device. The luminescence output is presented as relative light units (RLU), measured over time.
On the technique in general: Cellular ATP, detected with luciferase, serves as a proxy for viable cell number.

The test system of assay [5] is MDA-MB-231. The assay is described as follows: In vitro cell proliferation assay (CellTiter-Glo), MDA-MB-231. The format is cell-based. As to conditions: Homo sapiens, MDA-MB-231; growth inhibition, semiquantitative; read-out: GI50 MDA-MB-231. As for the experimental part: as §2, §3, §4
The subject of assay [6] is SW620. The assay is described as follows: In vitro cell proliferation assay (CellTiter-Glo), SW620. The format is cell-based, human. To be noted: Homo sapiens, SW-620; growth inhibition, semiquantitative; read-out: GI50 SW620. As for the experimental part:
as §2, §3, §4

Assay [7] has as its system Molm13. The assay is described as follows: In vitro cell proliferation assay (CellTiter-Glo), Molm13. As to conditions: Homo sapiens, MOLM-13; growth inhibition, semiquantitative; read-out: GI50 Molm13. Type of assay: cell-based. As for the experimental part:
as §2, §3, §4

The target in assay [8] is Haspin kinase (Homo sapiens (Human), UniProt Q8TF76). The assay is described as follows: Haspin kinase assay (ADP-Glo). The format is biochemical. To be noted: ATP 150 μM. In a few lines:
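Compounds in 1:3 serial dilutions (1% DMSO final) were incubated 60 min at 30 °C with 20 nM recombinant GST-Haspin kinase domain and 150 μM ATP, without substrate, in pH 7.4 HEPES/MgCl2 buffer. ADP formed was read by luciferase luminescence and normalized to uninhibited enzyme to give % inhibition.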

Assay [9] addresses intracellular HASPIN (Homo sapiens (Human), UniProt Q8TF76). The assay is described as follows: Cellular HASPIN inhibition assay, western blot phospho H3T3 in synchronized SW620 cells. Type of assay: cell-based. As to conditions: semiquantitative, read-out: SW620 PH3(T3) in synchronized cells. As for the experimental part:
Compounds can be screened for their ability to inhibit intracellular HASPIN using a western blot assay to detect phosphorylation of the HASPIN substrate H3T3 in synchronized cells. SW620 cells are plated at 200000 cells per well in 6-well plates (Solmeglas 13118) in RPMI media (Sigma-Aldrich R6504) supplemented with 10% foetal bovine serum (Sigma-Aldrich F7524), Penicillin/Streptomycin solution diluted 1:100 (Gibco 15070-063), and fungizone (Gibco, 15290-018), and allowed to adhere overnight at 37° C. in 5% CO2. Cells are then treated 16 h hours with Nocadazole (Sigma-Aldrich M1404) at 250 ng/ml to arrest them in mitosis. Proteasoma inhibitor MG132 (Sigma-Aldrich C2211) is added to a final concentration of […] to keep cells arrested in mitosis. Compounds are then added to the cell media from a final concentration of 10 μM in 10-fold serial dilutions and the cells are incubated at 37° C. in 5% CO2. After 1 hour and 30 minutes of treatment with the compounds, the cells are washed in PBS, lysed adding 100 μl of protein lysis buffer (62.5 mM Tris pH 6.8 al 6.25%, 2% SDS y 10% glycerol) incubation 10 minutes at room temperature and heating at 95° C. 10 min. The protein content of the lysates is determined by DC protein assay (Biorad, Ref. 5000116). The proteins are resolved by SDS-PAGE and transferred to nitrocellulose membrane (VWR International eurolab, Ref. 732-4007). The membranes are incubated overnight at 4° C. with antibodies specific for total H3 (Millipore #07424), phosphothreonine-3 H3 (Cell Signaling Ref. 14269) they are washed and then incubated with IRDye800 conjugated anti-mouse (Pierce/Cultek, 35521) and Alexa Fluor 680 goat anti-rabbit IgG secondary antibodies (Invitrogen, A21076). The bands are visualized and quantified using an Odyssey infrared imaging system (Li-Cor Biosciences). The percentage of phosphorylated H3 vs total H3 in synchronized cells is taken as hundred percent of phosphorylation. The percentage of H3 phosphorylation is finally plotted against concentration for each compound and EC50s for intracellular HASPIN inhibition are calculated using ActivityBase from IDBS.

For assay [10], the system named is SW620. The assay is described as follows: Combination assay, SW620. The format is cell-based, human. To be noted: Homo sapiens, SW-620; SW620, chemotherapeutic alone; read-out: Chemo GI50. As for the experimental part: (§5) The combination index (CI) of combinations of certain example compounds and various chemotherapeutic agents in the CellTitetI-Glo® in vitro cell proliferation assays may be tested. A combination index score is calculated by the Chou and Talalay method (CalcuSyn software, Biosoft). The strength of synergy is scored using the ranking system Chou and Talalay: CI less than 0.8 indicates synergy, CI between 0.8 and 1.2 indicates additivity and CI greater than 1.2 indicates antagonism.
(§6) The EC50 values of representative combinations are also calculated. The individually measured EC50 values of the chemotherapeutic agent and the example compounds are compared to the EC50 value of the combination. The cell lines are characterised by tumor type. Combination assays are performed as described in: “Pim 1 kinase inhibitor ETP-45299 suppresses cellular proliferation and synergizes with PI3K inhibition”. Blanco-Aparicio, Carmen; Collazo, Ana Maria Garcia; Oyarzabal, Julen; Leal, Juan F.; Albaran, Maria Isabel; Lima, Francisco Ramos; Pequeno, Belen; Ajenjo, Nuria; Becerra, Mercedes; Alfonso, Patricia; Reymundo, Maria Isabel; Palacios, Irene; Mateos, Genoveva; Quinones, Helena; Corrionero, Ana; Carnero, Amancio; Pevarello, Paolo; Lopez, Ana Rodriguez; Fominaya, Jesus; Pastor, Joaquin; Bischoff, James R. Cancer Letters (Shannon, Ireland) 2011, 300(2), 145-153

In assay [11] the test system is HCT116. The assay is described as follows: Combination assay, HCT116. Type of assay: cell-based. As to conditions: Homo sapiens, HCT-116; HCT116, chemotherapeutic alone; read-out: Chemo GI50. As for the experimental part:
as §5, §6

The test system of assay [12] is DU145. Put plainly: Combination assay, DU145. Type of assay: cell-based. As to conditions: Homo sapiens, DU-145; DU145, chemotherapeutic alone; read-out: Chemo GI50. As for the experimental part: as §5
The EC50 values of representative combinations are also calculated. The individually measured EC50 values of the chemotherapeutic agent and the example compounds are compared to the EC50 value of the combination. The cell lines are characterised by tumor type. […] Blanco-Aparicio, Carmen; Collazo, Ana Maria Garcia; Oyarzabal, Julen; Leal, Juan F.; Albaran, Maria Isabel; Lima, Francisco Ramos; Pequeno, Belen; Ajenjo, Nuria; Becerra, Mercedes; Alfonso, Patricia; Reymundo, Maria Isabel; Palacios, Irene; Mateos, Genoveva; Quinones, Helena; Corrionero, Ana; Carnero, Amancio; Pevarello, Paolo; Lopez, Ana Rodriguez; Fominaya, Jesus; Pastor, Joaquin; Bischoff, James R. Cancer Letters (Shannon, Ireland) 2011, 300(2), 145-153

Sequence of CDK8/Cyclin C (P49336 whole entry): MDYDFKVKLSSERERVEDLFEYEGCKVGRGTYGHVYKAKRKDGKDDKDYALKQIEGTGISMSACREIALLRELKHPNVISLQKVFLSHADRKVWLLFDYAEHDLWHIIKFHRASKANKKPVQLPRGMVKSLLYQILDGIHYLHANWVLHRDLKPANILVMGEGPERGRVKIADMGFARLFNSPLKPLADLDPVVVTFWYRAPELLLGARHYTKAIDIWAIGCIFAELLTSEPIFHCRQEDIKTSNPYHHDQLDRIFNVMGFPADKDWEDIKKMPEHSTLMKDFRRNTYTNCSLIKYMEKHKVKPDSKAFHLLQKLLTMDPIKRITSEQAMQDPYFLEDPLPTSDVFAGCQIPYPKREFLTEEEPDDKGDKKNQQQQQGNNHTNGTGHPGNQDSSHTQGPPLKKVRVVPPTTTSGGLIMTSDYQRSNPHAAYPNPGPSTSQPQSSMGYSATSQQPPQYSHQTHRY
Sequence of CDK8/Cyclin C (P24863 whole entry partner): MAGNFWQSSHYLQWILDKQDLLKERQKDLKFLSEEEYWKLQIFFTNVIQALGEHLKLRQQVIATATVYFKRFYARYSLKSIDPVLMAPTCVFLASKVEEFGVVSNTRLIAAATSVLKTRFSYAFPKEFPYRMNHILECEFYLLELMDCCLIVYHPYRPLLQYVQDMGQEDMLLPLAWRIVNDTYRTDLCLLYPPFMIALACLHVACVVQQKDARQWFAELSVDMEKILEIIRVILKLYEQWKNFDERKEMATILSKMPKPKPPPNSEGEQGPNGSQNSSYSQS
Sequence of intracellular CDK8 (P49336 whole entry): as the sequence (P49336 whole entry) above
Sequence of intracellular CDK8 (P24863 whole entry partner): as the sequence (P24863 whole entry partner) above
Sequence of intracellular CDK8 (Q93074 whole entry partner): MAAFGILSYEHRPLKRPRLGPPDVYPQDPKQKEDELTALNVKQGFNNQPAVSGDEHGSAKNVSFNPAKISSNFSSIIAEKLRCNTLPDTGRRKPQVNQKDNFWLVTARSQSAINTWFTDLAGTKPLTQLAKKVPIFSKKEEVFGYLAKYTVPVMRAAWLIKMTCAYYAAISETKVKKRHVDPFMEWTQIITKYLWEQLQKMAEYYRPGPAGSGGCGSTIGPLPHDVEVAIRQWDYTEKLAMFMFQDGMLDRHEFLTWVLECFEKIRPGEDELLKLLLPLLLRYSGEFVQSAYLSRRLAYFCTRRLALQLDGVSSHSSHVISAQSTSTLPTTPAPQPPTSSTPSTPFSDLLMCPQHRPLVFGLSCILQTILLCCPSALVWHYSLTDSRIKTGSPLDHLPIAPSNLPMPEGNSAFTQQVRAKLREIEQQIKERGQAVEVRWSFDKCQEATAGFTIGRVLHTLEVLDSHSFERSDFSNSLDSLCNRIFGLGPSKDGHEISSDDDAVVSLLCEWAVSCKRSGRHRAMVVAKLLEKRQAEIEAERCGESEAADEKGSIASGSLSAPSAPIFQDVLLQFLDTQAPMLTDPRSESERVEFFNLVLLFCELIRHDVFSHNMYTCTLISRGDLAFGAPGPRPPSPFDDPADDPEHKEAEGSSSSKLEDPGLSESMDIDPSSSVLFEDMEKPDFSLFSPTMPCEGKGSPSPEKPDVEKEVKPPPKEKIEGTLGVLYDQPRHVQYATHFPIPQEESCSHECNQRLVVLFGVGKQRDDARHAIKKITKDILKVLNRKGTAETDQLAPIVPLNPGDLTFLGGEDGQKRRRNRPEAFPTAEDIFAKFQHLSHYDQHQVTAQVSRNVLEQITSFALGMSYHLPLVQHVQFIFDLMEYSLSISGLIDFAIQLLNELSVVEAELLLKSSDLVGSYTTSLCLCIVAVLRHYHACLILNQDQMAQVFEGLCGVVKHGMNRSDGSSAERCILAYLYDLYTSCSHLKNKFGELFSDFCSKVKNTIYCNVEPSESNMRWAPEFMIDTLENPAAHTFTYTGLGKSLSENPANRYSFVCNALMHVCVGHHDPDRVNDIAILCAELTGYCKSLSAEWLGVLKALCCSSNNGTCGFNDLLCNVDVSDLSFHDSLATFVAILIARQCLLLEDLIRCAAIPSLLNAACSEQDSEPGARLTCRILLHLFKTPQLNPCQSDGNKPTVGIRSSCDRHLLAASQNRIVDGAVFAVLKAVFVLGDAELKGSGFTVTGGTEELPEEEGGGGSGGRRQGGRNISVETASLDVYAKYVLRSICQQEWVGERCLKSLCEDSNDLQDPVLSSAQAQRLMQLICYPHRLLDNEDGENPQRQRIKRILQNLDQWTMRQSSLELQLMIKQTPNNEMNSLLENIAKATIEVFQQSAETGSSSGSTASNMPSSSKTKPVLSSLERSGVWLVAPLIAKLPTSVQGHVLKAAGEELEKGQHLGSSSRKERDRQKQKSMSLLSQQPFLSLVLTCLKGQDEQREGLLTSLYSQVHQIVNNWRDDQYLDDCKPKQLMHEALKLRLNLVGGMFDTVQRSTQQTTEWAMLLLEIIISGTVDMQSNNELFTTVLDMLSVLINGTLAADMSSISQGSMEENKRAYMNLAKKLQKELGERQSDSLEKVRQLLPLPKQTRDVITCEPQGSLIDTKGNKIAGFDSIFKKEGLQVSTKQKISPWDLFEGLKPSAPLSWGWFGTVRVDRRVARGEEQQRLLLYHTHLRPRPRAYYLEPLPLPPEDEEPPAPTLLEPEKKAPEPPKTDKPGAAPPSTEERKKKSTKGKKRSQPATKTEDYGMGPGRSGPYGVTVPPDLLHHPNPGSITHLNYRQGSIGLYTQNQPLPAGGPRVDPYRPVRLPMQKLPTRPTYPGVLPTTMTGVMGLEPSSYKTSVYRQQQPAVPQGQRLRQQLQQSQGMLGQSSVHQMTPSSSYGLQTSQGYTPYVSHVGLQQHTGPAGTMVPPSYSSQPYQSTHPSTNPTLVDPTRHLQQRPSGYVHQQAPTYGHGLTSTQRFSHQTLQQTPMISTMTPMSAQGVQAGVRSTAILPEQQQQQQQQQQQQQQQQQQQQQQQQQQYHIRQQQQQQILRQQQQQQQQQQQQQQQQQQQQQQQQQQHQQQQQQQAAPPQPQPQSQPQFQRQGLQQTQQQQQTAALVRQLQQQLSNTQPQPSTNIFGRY
Sequence of CDK19/Cyclin C (Q9BWU1 whole entry): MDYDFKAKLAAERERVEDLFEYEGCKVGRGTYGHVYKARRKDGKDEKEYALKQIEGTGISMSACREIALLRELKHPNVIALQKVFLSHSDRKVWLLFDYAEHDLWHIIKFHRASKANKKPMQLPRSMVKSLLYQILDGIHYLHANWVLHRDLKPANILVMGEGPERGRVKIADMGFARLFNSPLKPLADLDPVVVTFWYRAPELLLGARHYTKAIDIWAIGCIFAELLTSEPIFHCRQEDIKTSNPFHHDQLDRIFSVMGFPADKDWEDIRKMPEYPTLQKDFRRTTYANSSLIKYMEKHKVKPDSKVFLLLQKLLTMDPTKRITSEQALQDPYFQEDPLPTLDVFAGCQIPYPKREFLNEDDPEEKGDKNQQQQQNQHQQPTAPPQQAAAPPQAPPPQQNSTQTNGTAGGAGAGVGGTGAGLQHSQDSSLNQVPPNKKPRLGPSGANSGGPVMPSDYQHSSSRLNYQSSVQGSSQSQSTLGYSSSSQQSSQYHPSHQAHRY
Sequence of CDK19/Cyclin C (P24863 whole entry partner): as the sequence (P24863 whole entry partner) above
Sequence of intracellular HASPIN (Q8TF76 whole entry): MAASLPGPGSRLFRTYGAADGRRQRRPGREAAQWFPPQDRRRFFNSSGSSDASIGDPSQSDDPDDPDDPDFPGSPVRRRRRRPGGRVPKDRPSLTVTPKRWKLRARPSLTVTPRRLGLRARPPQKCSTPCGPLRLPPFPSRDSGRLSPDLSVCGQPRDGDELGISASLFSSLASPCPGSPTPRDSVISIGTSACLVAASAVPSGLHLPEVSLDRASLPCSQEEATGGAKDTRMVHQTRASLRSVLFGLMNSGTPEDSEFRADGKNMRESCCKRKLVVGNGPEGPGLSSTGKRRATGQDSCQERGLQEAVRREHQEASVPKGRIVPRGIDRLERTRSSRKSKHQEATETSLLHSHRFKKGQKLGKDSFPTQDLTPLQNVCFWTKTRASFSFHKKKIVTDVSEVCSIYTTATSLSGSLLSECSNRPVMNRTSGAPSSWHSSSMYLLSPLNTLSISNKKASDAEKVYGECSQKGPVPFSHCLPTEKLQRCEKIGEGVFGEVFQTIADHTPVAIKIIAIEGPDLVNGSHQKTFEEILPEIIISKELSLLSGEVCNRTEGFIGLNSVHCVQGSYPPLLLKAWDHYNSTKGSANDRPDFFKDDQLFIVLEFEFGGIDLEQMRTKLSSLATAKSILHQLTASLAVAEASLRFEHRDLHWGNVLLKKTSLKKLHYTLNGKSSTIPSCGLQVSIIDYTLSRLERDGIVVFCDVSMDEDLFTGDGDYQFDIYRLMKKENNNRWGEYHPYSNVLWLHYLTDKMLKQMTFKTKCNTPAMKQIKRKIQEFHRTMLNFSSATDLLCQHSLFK
Sequence of Haspin kinase (Q8TF76 484-798): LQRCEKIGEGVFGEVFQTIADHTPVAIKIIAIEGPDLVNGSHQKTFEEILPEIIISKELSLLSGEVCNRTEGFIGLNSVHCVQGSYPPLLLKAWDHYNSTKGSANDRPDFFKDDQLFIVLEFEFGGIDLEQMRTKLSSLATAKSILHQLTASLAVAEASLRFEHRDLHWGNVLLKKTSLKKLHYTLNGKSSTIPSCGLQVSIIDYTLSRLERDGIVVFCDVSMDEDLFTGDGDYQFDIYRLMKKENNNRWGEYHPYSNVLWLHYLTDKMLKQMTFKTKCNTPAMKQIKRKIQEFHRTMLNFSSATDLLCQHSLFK

For the molecule `NC(=O)c1cc2c([nH]1)-c1ccncc1O[C@@H]2C1CCCCC1` (single isomer, unassigned) [Example 69], the IC50 was determined as 19.3 nM in assay [1] and 87.3 nM in assay [2]. Further, the EC50 in assay [3] was < 500 nM. Further, the GI50 in [4] was < 1000 nM; in assay [5] it was 1000 to 10000 nM; in assay [6], < 1000 nM; in assay [7], < 1000 nM.

Regarding `NC(=O)c1cc2c([nH]1)-c1ccncc1O[C@@H]2C1CCOCC1` (single isomer, unassigned) [Example 71], the IC50 worked out at 281 nM in assay [1] and 5760 nM in assay [8]. Besides, the EC50 in [3] and in [9] was 500 to 10000 nM each time.

Take `COc1cc(Nc2ncc3c(n2)-c2ccc(Cl)cc2C(c2c(F)cccc2OC)=NC3)ccc1C(=O)O` [Alisertib, alisertib, reference compound]: the GI50 worked out at 500 nM in assay [10], 12500 nM in [11] and 12500 nM in assay [12].

As to `COCCn1c(C(N)=O)cc2c1-c1ccncc1OC2(C)C` [Example 45], the IC50 in assay [1] was found to be 4.64 nM; in assay [8], 182 nM; in [2] it was 11.5 nM. Further, the EC50 in assay [3] and in assay [9] was < 500 nM in each case.

As usually defined, the IC50 is the midpoint of a concentration-inhibition curve. One may read the GI50 as the concentration that inhibits growth by half.

The values above are taken from patent US10208056B2, “Condensed tricyclic compounds as protein kinase inhibitors” (FUNDACIÓN DEL SECTOR PÚBLICO ESTATAL CENTRO NACIONAL DE …, priority 2015, dated 2019).
